{"source": "the NIST ThermoML archive (doi:10.1021/je200787v)", "key": {"[1]": {"conditions": "Liquid"}, "[2]": {"assay": "xn = mol fraction of the nth substance listed", "conditions": "Liquid; for viscosity: Falling or rolling sphere viscometry; for mass density: Vibrating tube method"}}, "note": "“And” between values parts separate entries of the source, which are not always exact repeats. Identical values can stand only once. ± gives the expanded uncertainty stated by the source.", "data": [{"smiles": "CCCCCCCCCCCCCCCCCC", "note": "[octadecane]", "values": [{"measurement": "mass density", "setting": "[1]; 323.1 K", "value": "757 ± 4 kg/m3 [middle of 4 runs]"}, {"measurement": "mass density", "setting": "[1]; 323.3 K", "value": "756 ± 4 kg/m3 and 757 ± 4 kg/m3"}, {"measurement": "mass density", "setting": "[1]; 372.8 K", "value": "734 ± 5 kg/m3 [middle of 6 runs]"}, {"measurement": "mass density", "setting": "[1]; 422.5 K", "value": "703 ± 5 kg/m3 and 704 ± 5 kg/m3"}, {"measurement": "mass density", "setting": "[1]; 422.6 K", "value": "700 ± 5 kg/m3 [middle of 6 runs]"}]}, {"smiles": "CCCCCCCCCCCCCCCCCC", "note": "[octadecane] + CC", "values": [{"measurement": "viscosity", "setting": "[2]; 323.1 K, x2 = 0.27", "value": "1.59 ± 0.16", "unit": "mPa·s"}, {"measurement": "viscosity", "setting": "[2]; 323.1 K, x2 = 0.415", "value": "1.09 ± 0.11", "unit": "mPa·s"}, {"measurement": "viscosity", "setting": "[2]; 323.1 K, x2 = 0.789", "value": "0.31 ± 0.03", "unit": "mPa·s"}, {"measurement": "viscosity", "setting": "[2]; 323.1 K, x2 = 0.844", "value": "0.23 ± 0.02", "unit": "mPa·s"}, {"measurement": "mass density", "setting": "[2]; 323.1 K, x2 = 0.27", "value": "732 ± 2", "unit": "kg/m3"}, {"measurement": "mass density", "setting": "[2]; 323.1 K, x2 = 0.415", "value": "715 ± 2", "unit": "kg/m3"}, {"measurement": "mass density", "setting": "[2]; 323.1 K, x2 = 0.789", "value": "606 ± 2", "unit": "kg/m3"}, {"measurement": "mass density", "setting": "[2]; 323.1 K, x2 = 0.844", "value": "572 ± 2", "unit": "kg/m3"}, {"measurement": "viscosity", "setting": "[2]; 323.3 K, x2 = 0.546", "value": "0.81 ± 0.08", "unit": "mPa·s"}, {"measurement": "viscosity", "setting": "[2]; 323.3 K, x2 = 0.654", "value": "0.55 ± 0.06", "unit": "mPa·s"}, {"measurement": "mass density", "setting": "[2]; 323.3 K, x2 = 0.546", "value": "691 ± 2", "unit": "kg/m3"}, {"measurement": "mass density", "setting": "[2]; 323.3 K, x2 = 0.654", "value": "662 ± 2", "unit": "kg/m3"}, {"measurement": "viscosity", "setting": "[2]; 372.8 K, x2 = 0.127", "value": "0.87 ± 0.09", "unit": "mPa·s"}, {"measurement": "viscosity", "setting": "[2]; 372.8 K, x2 = 0.298", "value": "0.7 ± 0.07", "unit": "mPa·s"}, {"measurement": "viscosity", "setting": "[2]; 372.8 K, x2 = 0.372", "value": "0.62 ± 0.06", "unit": "mPa·s"}, {"measurement": "viscosity", "setting": "[2]; 372.8 K, x2 = 0.474", "value": "0.52 ± 0.05", "unit": "mPa·s"}, {"measurement": "viscosity", "setting": "[2]; 372.8 K, x2 = 0.536", "value": "0.46 ± 0.05", "unit": "mPa·s"}, {"measurement": "viscosity", "setting": "[2]; 372.8 K, x2 = 0.599", "value": "0.39 ± 0.04", "unit": "mPa·s"}, {"measurement": "viscosity", "setting": "[2]; 372.8 K, x2 = 0.666", "value": "0.32 ± 0.03", "unit": "mPa·s"}, {"measurement": "viscosity", "setting": "[2]; 372.8 K, x2 = 0.701", "value": "0.29 ± 0.03", "unit": "mPa·s"}, {"measurement": "mass density", "setting": "[2]; 372.8 K, x2 = 0.127", "value": "719 ± 2", "unit": "kg/m3"}, {"measurement": "mass density", "setting": "[2]; 372.8 K, x2 = 0.298", "value": "703 ± 2", "unit": "kg/m3"}, {"measurement": "mass density", "setting": "[2]; 372.8 K, x2 = 0.372", "value": "692 ± 2", "unit": "kg/m3"}, {"measurement": "mass density", "setting": "[2]; 372.8 K, x2 = 0.474", "value": "676 ± 2", "unit": "kg/m3"}, {"measurement": "mass density", "setting": "[2]; 372.8 K, x2 = 0.536", "value": "664 ± 2", "unit": "kg/m3"}, {"measurement": "mass density", "setting": "[2]; 372.8 K, x2 = 0.599", "value": "648 ± 2", "unit": "kg/m3"}, {"measurement": "mass density", "setting": "[2]; 372.8 K, x2 = 0.666", "value": "628 ± 2", "unit": "kg/m3"}, {"measurement": "mass density", "setting": "[2]; 372.8 K, x2 = 0.701", "value": "614 ± 2", "unit": "kg/m3"}, {"measurement": "viscosity", "setting": "[2]; 422.5 K, x2 = 0.547", "value": "0.29 ± 0.03", "unit": "mPa·s"}, {"measurement": "viscosity", "setting": "[2]; 422.5 K, x2 = 0.588", "value": "0.27 ± 0.03", "unit": "mPa·s"}, {"measurement": "mass density", "setting": "[2]; 422.5 K, x2 = 0.547", "value": "624 ± 2", "unit": "kg/m3"}, {"measurement": "mass density", "setting": "[2]; 422.5 K, x2 = 0.588", "value": "613 ± 2", "unit": "kg/m3"}, {"measurement": "viscosity", "setting": "[2]; 422.6 K, x2 = 0.096", "value": "0.55 ± 0.06", "unit": "mPa·s"}, {"measurement": "viscosity", "setting": "[2]; 422.6 K, x2 = 0.194", "value": "0.49 ± 0.05", "unit": "mPa·s"}, {"measurement": "viscosity", "setting": "[2]; 422.6 K, x2 = 0.296", "value": "0.43 ± 0.04", "unit": "mPa·s"}, {"measurement": "viscosity", "setting": "[2]; 422.6 K, x2 = 0.365", "value": "0.4 ± 0.04", "unit": "mPa·s"}, {"measurement": "viscosity", "setting": "[2]; 422.6 K, x2 = 0.427", "value": "0.37 ± 0.04", "unit": "mPa·s"}, {"measurement": "viscosity", "setting": "[2]; 422.6 K, x2 = 0.477", "value": "0.33 ± 0.03", "unit": "mPa·s"}, {"measurement": "mass density", "setting": "[2]; 422.6 K, x2 = 0.096", "value": "688 ± 2", "unit": "kg/m3"}, {"measurement": "mass density", "setting": "[2]; 422.6 K, x2 = 0.194", "value": "679 ± 2", "unit": "kg/m3"}, {"measurement": "mass density", "setting": "[2]; 422.6 K, x2 = 0.296", "value": "667 ± 2", "unit": "kg/m3"}, {"measurement": "mass density", "setting": "[2]; 422.6 K, x2 = 0.365", "value": "659 ± 2", "unit": "kg/m3"}, {"measurement": "mass density", "setting": "[2]; 422.6 K, x2 = 0.427", "value": "648 ± 2", "unit": "kg/m3"}, {"measurement": "mass density", "setting": "[2]; 422.6 K, x2 = 0.477", "value": "640 ± 2", "unit": "kg/m3"}]}]}
